Publication PMC8624133, “10th Trends in Medical Mycology Held on 8 to 11 October 2021, Aberdeen, Scotland, Organized by the European Confederation of Medical Mycology (ECMM)” (Journal of Fungi, 2021)
In brackets after ≈: the same amount, converted by molar mass. Read-outs that look alike come from different tables or passages of the source. Starred links: 1 amine or outer side, 2 acyl side, 3 side chain; linkers in the order of their positions; H or OH if unused. Positions of bridges follow the written chain, without caps; N, C: chain ends. Non-standard residues stand in square brackets, D forms with d. Residues, ends and D or L forms follow the SMILES beside them. *: point of attachment. hTyr(3S-OH,4S-OH,3'-OSO3H) = N[C@H](C(=O)O)[C@H](O)[C@@H](O)c1ccc(O)c(OS(=O)(=O)O)c1; Orn(4R-OH,5R-OH) = O=C([C@H](C[C@@H](O)[C@@H](O)N[*:3])N[*:1])[*:2]; Pro(3S-OH,4S-Me) = C[C@H]1CN[C@H](C(=O)O)[C@H]1O; X1 = CCCCCOc1ccc(-c2cc(-c3ccc(C(=O)*)cc3)no2)cc1; Gln(3R-OH) = NC(=O)C[C@@H](O)[C@H](N)C(=O)O; Hyp = O=C(O)[C@@H]1C[C@@H](O)CN1

Columns and labels:
[1] = tested on: C. auris clinical strains; test: organism not typed; format: cell-based, Candida auris; conditions: range, 78 strains from patients with COVID-19
[2] = tested on: Candida spp. blood isolates; conditions: 2009–2018
[3] = tested on: environmental yeasts from a lagoon; test: organism not typed; format: cell-based
Candida auris isolates [4] = test: Disc diffusion, Oxoid discs; format: cell-based
Aspergillus tubingensis = test: EUCAST susceptibility; format: cell-based
Method: The fungus was identified as Aspergillus niger and liposomal amphotericine B was switched to anidulafungin pending susceptibility testing as the patient had pre-existing […] (eGFR CKD-EPI 40 mL/min/1.73 m²). […] Despite increasing the anidulafungin dosage to 200 mg daily and adequate voriconazol levels, serum galactomannan levels remained elevated (index 2.1 at discharge). […] Since no extracardiac sources were found and the patient did well clinically, they were discharched. Anidulafungin was switched to caspofungin to facilitate ongoing IV treatment in the outpatient setting. […] The patient died shortly after. Obduction was not performed.

[5] = tested on: Candida sp. and other yeast isolates, planktonic; test: MIC of catheter yeast isolates, planktonic form; format: cell-based; conditions: range; read-out: MIC
C. albicans [6] = format: cell-based, Candida albicans
C. albicans [7] = test: Candidemia Netherlands, MIC distributions against EUCAST ECOFF; format: cell-based, Candida albicans
C. parapsilosis = format: cell-based, Candida parapsilosis
C. krusei [8] = format: cell-based, Candida krusei
F. verticillioides = test: Etest susceptibility; format: cell-based, Fusarium verticillioides
Other species of Candida = format: cell-based, Candida spp.
[9] = tested on: invasive C. glabrata strains; test: YeastOne Sensititre colorimetric broth microdilution; format: cell-based, Candida glabrata; conditions: Nakaseomyces glabratus
Method: Material and Method: Thirty-six clinical isolates of invasive C. glabrata strains were analyzed in this study. Minimum inhibitory concentrations (MICs) were determined using colorimetric broth microdilution (YeastOneSensititre, Trek diagnostics). Genomic DNA was isolated using Qiagen DNA extraction Kit. The FKS1 and FKS2 gene fragment were amplified and PCR products were purified prior to sequencing. Double-strand sequencing of PCR products was performed using Sanger sequencing methodology. Sequences were analyzed with MEGA-6 software to identify specific SNP combination against wild-type sequences of C. glabrata.

[10] = tested on: sessile cells of yeast mono and dual-species biofilms; test: MIC of catheter yeast isolates, mono and dual-species biofilms; format: cell-based; conditions: range
C. glabrata [11] = format: cell-based, Candida glabrata
C. glabrata [12] = test: Candidemia Netherlands, MIC distributions against EUCAST ECOFF; format: cell-based, Candida glabrata
[13] = tested on: Exophiala phaeomuriformis; test: MIC, CLSI M27-A3; format: cell-based; conditions: read-out: MIC values
Method: Materials & Methods: The aviation kerosone samples came from an aviation company in Porto Alegre, state of Rio Grande do Sul, Brazil. The fungi isolation was carried out using the modified ASTM D6974-09 Standard. In this procedure, 500 mL kerosene samples were filtered, in triplicate, under aseptic conditions, under vacuum, using a 0.22 μm membrane (Millipore). After filtering, the membranes were deposited in potato dextrose agar culture medium. The plates were incubated in an oven at 30 °C for seven days. After this period, the colonies were isolated in new culture media for purification of the isolates. Molecular identification was performed through the sequencing of ITS DNA regions. The profile of sensitivity to clinical antifungals was assessed following protocols M27-A3 of the Clinical and Laboratory Standards Institute (CLSI).

C. tropicalis = format: cell-based, Candida tropicalis
Candida auris isolates [14] = test: microbe, parasite or virus in culture; format: cell-based; conditions: for categorised as resistant on MIC: CDC guidelines; for MIC: Candidozyma auris, IQR given, read-out: median MIC
C. krusei [15] = test: ARIA surveillance, CLSI M27 broth microdilution; format: cell-based, Candida krusei
Method: Materials & Methods: Isolates (n = 730) were collected and re-identified by MALDI-TOF or molecular methods. […] Percentage susceptibility (%S) or wild-type (%WT) were calculated according to CLSI breakpoints (CLSI supplement M60) or epidemiological cut-off values (CLSI supplement M59), respectively.

C. parapsilosis (CPRP) = test: Post-antifungal effect (PAFE); format: cell-based, Candida parapsilosis
Method: (§1) Materials &Methods: Six Candida spp. […] For PAFE determinations, antifungal concentrations of 1×, 4×, and 16× bMiC were used. A starting inoculum of 1–[…] CFU/mLwas added to RPMl with the antifungal agent. Post 1 h exposure, cells were washed 3 times and resuspended in 10 mL of pre-warmed RPMl. Colony counts were performed at to, 1 h before and after final washt t2, t4, t8, t12, t24 and t48 h. PAFE was calculated as the difference in time required for isolates to rrow1-logio following the final cell wash compared to the growth control.

C. guilliermondii = test: EUCAST E. Def 7.3.2 microdilution; format: cell-based, Candida guilliermondii; conditions: n = 62
[16] = tested on: C. albicans and C. glabrata; test: FUNGINOS candidemia survey, susceptibility according to CLSI; format: cell-based; conditions: share of isolates
Candida albicans (CA) = test: Post-antifungal effect (PAFE); format: cell-based; conditions: CA clinical isolate; all concentrations (1×, 4×, 16× bMIC), 1 h exposure
Method: as §1

C. glabrata (CGLA) = test: Post-antifungal effect (PAFE); format: cell-based, Candida glabrata
Method: as §1

C. fermentati = test: EUCAST E. Def 7.3.2 microdilution; format: cell-based, Candida fermentati; conditions: n = 2
[17] = 36 clinical isolates, read-out: median (Min–Max) MIC

With `Nc1[nH]c(=O)ncc1F` [5-flucytosine] the MIC [1] was 0.06 to 0.12 µg/mL (≈ 0.465 to 0.93 µM) and the Resistance [2] was “No resistance”.

`CC[C@H](C)C[C@H](C)CCCCCCCCC(=O)N[C@H]1C[C@@H](O)[C@@H](NCCN)NC(=O)[C@@H]2[C@@H](O)CCN2C(=O)[C@H]([C@H](O)CCN)NC(=O)[C@H]([C@H](O)[C@@H](O)c2ccc(O)cc2)NC(=O)[C@@H]2C[C@@H](O)CN2C(=O)[C@H]([C@@H](C)O)NC1=O` [caspofungin] was tested, and the “isolates classified as resistant-like” value ([3]; number of 71 yeasts, MIC at or above Candida breakpoint) was 48, the MIC ([3]; range, read-out: MIC of resistant-like isolates) was 1 to 128 µg/mL and the “categorised as resistant on ZD” value (Candida auris isolates [4]) was “none”. The “median zone diameter (ZD)” value (Candida auris isolates [4]; 25 µg FLU and 5 µg CAS discs, […]) was 23 mm, the MIC (Aspergillus tubingensis) was 60 µg/mL (≈ 54.9 µM) and the MIC [5] was 0.06 to 1 µg/mL. The “I (intermediate) isolates, n (%)” value (C. albicans [6]) was 0 (0%), the “R (resistant) isolates, n (%)” value (C. albicans [6]) was 0 (0%) and the “S (sensitive) isolates, n (%)” value (C. albicans [6]) was 138 (100). The “isolates within the wildtype distribution range” value (C. albicans [7]) was 98.9%, the “I (intermediate) isolates, n (%)” value (C. parapsilosis) was 0 (0%) and the “R (resistant) isolates, n (%)” value (C. parapsilosis) was 0 (0%). For the same molecule, the “S (sensitive) isolates, n (%)” value (C. parapsilosis) was 132 (100%), the “I (intermediate) isolates, n (%)” value (C. krusei [8]) was 1 (33.3%) and the “S (sensitive) isolates, n (%)” value (C. krusei [8]) was 2 (66.7%). The “minimum inhibitory concentration (MIC), in words” value (F. verticillioides) was “high values”, the “I (intermediate) isolates, n (%)” value (Other species of Candida) was 0 (0%) and the “R (resistant) isolates, n (%)” value (Other species of Candida) was 0 (0%). The “S (sensitive) isolates, n (%)” value (Other species of Candida) was 18 (100%), the MIC [9, 17] was 0.06 µg/mL and the MIC ([9]; isolate with FKS1 D632H) was 0.25 µg/mL. For the same molecule, the MIC ([9]; isolate with FKS2 I661T) was 0.12 µg/mL, the MIC [10] was 0.5 to 16 µg/mL and the “R (resistant) isolates, n (%)” value (C. glabrata [11]) was 3 (5.5%). For the same molecule, the “S (sensitive) isolates, n (%)” value (C. glabrata [11]) was 44 (80%), the “isolates within the wildtype distribution range” value (C. glabrata [12]) was 87.1% and the MIC [1] was 0.06 to 1 µg/mL (≈ 0.0549 to 0.915 µM). The MIC [13] was > 8 µg/mL, the “I (intermediate) isolates, n (%)” value (C. tropicalis) was 0 (0%) and the “R (resistant) isolates, n (%)” value (C. tropicalis) was 0 (0%). For the same molecule, the “S (sensitive) isolates, n (%)” value (C. tropicalis) was 44 (100%), the “categorised as resistant on MIC” value (Candida auris isolates [14]) was 13.2% and the MIC (Candida auris isolates [14]) was 0.12 µg/mL (≈ 0.11 µM).

`CCCCCOc1ccc(-c2cc(-c3ccc(C(=O)N[C@H]4C[C@@H](O)[C@@H](O)NC(=O)[C@@H]5[C@@H](O)[C@@H](C)CN5C(=O)[C@H]([C@H](O)CC(N)=O)NC(=O)[C@H]([C@H](O)[C@@H](O)c5ccc(O)c(OS(=O)(=O)O)c5)NC(=O)[C@@H]5C[C@@H](O)CN5C(=O)[C@H]([C@@H](C)O)NC4=O)cc3)no2)cc1` [micafungin] (X1-[Orn(4R-OH,5R-OH)]T[Hyp][hTyr(3S-OH,4S-OH,3'-OSO3H)][Gln(3R-OH)][Pro(3S-OH,4S-Me)]; lactam 1-C) was tested, and the “I (intermediate) isolates, n (%)” value (C. albicans [6]) was 1 (0.7%), the “R (resistant) isolates, n (%)” value (C. albicans [6]) was 1 (0.7%) and the “S (sensitive) isolates, n (%)” value (C. albicans [6]) was 136 (98.6%). The susceptibility (C. krusei [15]; Argentina, Australia, Italy and Taiwan) was 100%, the susceptibility (C. krusei [15]; USA) was 73.3% and the “I (intermediate) isolates, n (%)” value (C. parapsilosis) was 0 (0%). The “R (resistant) isolates, n (%)” value (C. parapsilosis) was 0 (0%), the “S (sensitive) isolates, n (%)” value (C. parapsilosis) was 132 (100%) and the “S (sensitive) isolates, n (%)” value (C. krusei [8]) was 3 (100%). For the same molecule, the PAFE (C. parapsilosis (CPRP); CPRP ATCC 22019, 1× and 4× bMIC) was “no micafungin PAFE was observed”, the PAFE (C. parapsilosis (CPRP); CPRP ATCC 22019, 16× bMIC) was 1.8 h and the PAFE (C. parapsilosis (CPRP); CPRP clinical isolate, 1× bMIC) was 1.6 h. For the same molecule, the PAFE (C. parapsilosis (CPRP); CPRP clinical isolate, 4× bMIC) was 7.4 h, the PAFE (C. parapsilosis (CPRP); CPRP clinical isolate, 16× bMIC) was 31.3 h and the “I (intermediate) isolates, n (%)” value (Other species of Candida) was 0 (0%). The “R (resistant) isolates, n (%)” value (Other species of Candida) was 0 (0%), the “S (sensitive) isolates, n (%)” value (Other species of Candida) was 18 (100%) and the MIC [9, 17] was 0.015 µg/mL. For the same molecule, the MIC ([9]; isolate with FKS2 I661T) was 0.015 µg/mL, the MIC50 (C. guilliermondii; Meyerozyma guilliermondii) was 0.25 µg/mL (≈ 0.197 µM) and the MIC90 (C. guilliermondii; Meyerozyma guilliermondii) was 0.5 µg/mL (≈ 0.394 µM). For the same molecule, the GM (C. guilliermondii) was 0.228 µg/mL, the “MIC Range” value (C. guilliermondii) was 0.008 to 0.5 µg/mL and the “I (intermediate) isolates, n (%)” value (C. glabrata [11]) was 0 (0%). The “R (resistant) isolates, n (%)” value (C. glabrata [11]) was 0 (0%), the “S (sensitive) isolates, n (%)” value (C. glabrata [11]) was 55 (100%) and the MIC [1] was 0.06 to 1 µg/mL (≈ 0.0472 to 0.787 µM). The non-susceptibility [16] was 2%, the PAFE (Candida albicans (CA)) was > 14.9 h and the PAFE (C. glabrata (CGLA); CGLA #3 isolate, 1× bMIC) was 20.4 h. The PAFE (C. glabrata (CGLA); both CGLA strains, all concentrations) was > 40 h, the “I (intermediate) isolates, n (%)” value (C. tropicalis) was 0 (0%) and the “R (resistant) isolates, n (%)” value (C. tropicalis) was 0 (0%). The “S (sensitive) isolates, n (%)” value (C. tropicalis) was 44 (100%), the “categorised as resistant on MIC” value (Candida auris isolates [14]) was 1.4% and the MIC (Candida auris isolates [14]) was 0.12 µg/mL (≈ 0.0945 µM). For the same molecule, the GM (C. fermentati) was 0.125 µg/mL and the “MIC Range” value (C. fermentati) was 0.125 µg/mL (≈ 0.0984 µM).
